ChEMBL document CHEMBL3885881, “DrugMatrix”

Organism: Rattus norvegicus
Test: DrugMatrix - Regimen: Daily Repeat
Format: toxicity, organism-based, Sprague-Dawley
Set-up: regimen Daily Repeat, gender Male, age 6-8 weeks
Details: in vivo, po, route oral GAVAGE, vehicle 100 % WATER; for ABSOLUTE BASOPHIL / ABSOLUTE EOSINOPHIL / ABSOLUTE LYMPHOCYTE / ABSOLUTE MONOCYTE / ABSOLUTE SEGMENTED NEUTROPHIL / BASOPHIL / EOSINOPHIL / ERYTHROCYTE COUNT / HEMATOCRIT / HEMOGLOBIN / LEUKOCYTE COUNT / LYMPHOCYTE / MEAN CORPUSCULAR HEMOGLOBIN / MEAN CORPUSCULAR HEMOGLOBIN CONCENTRATION / MEAN CORPUSCULAR VOLUME / MONOCYTE / NEUTROPHIL / NUCLEATED RED BLOOD CELLS / PLATELET COUNT: tissue Blood; for ALANINE AMINOTRANSFERASE / ALBUMIN / ALKALINE PHOSPHATASE / ASPARTATE AMINOTRANSFERASE / BLOOD UREA NITROGEN / CARBON DIOXIDE / CHLORIDE / CHOLESTEROL / CREATINE PHOSPHOKINASE / CREATININE / GLUCOSE / LIPASE / PHOSPHORUS / POTASSIUM / SODIUM / TOTAL BILIRUBIN / TOTAL PROTEIN / URIC ACID: tissue Plasma
[1] = 175 mg/kg, 120 h, dose level High, time 5 day
[2] = […], 72 h, dose 5.7 mg/Kg, dose level Low, time 3 day
[3] = […], 120 h, dose 5.7 mg/Kg, dose level Low, time 5 day

CC(C)NCC(O)COc1cccc2ccccc12 (stereo unspecified) [PROPRANOLOL]
ABSOLUTE BASOPHIL [1]: 0 CELLS/uL
ABSOLUTE EOSINOPHIL [1]: 0 CELLS/uL
ABSOLUTE LYMPHOCYTE [1]: 13526.33 CELLS/uL
ABSOLUTE MONOCYTE [1]: 232.67 CELLS/uL
ABSOLUTE SEGMENTED NEUTROPHIL [1]: 741 CELLS/uL
BASOPHIL [1]: 0%
EOSINOPHIL [1]: 0%
ERYTHROCYTE COUNT [1]: 5.28 x10E6/uL
HEMATOCRIT [1]: 34.3%
HEMOGLOBIN [1]: 13.2 G/DL
LEUKOCYTE COUNT [1]: 14.5 x10E3/uL
LYMPHOCYTE [1]: 93.33%
MEAN CORPUSCULAR HEMOGLOBIN [1]: 25 pg
MEAN CORPUSCULAR HEMOGLOBIN CONCENTRATION [1]: 38.5 G/DL
MEAN CORPUSCULAR VOLUME [1]: 65 fL
MONOCYTE [1]: 1.67%
NEUTROPHIL [1]: 5%
NUCLEATED RED BLOOD CELLS [1]: 0 /100WBC
PLATELET COUNT [1]: 1299 x10E3/uL
ALANINE AMINOTRANSFERASE [1]: 57.33 u/L
ALBUMIN [1]: 3.97 G/DL
ALKALINE PHOSPHATASE [1]: 397.33 u/L
ASPARTATE AMINOTRANSFERASE [1]: 73.67 u/L
BLOOD UREA NITROGEN [1]: 17 mg/dL
CARBON DIOXIDE [1]: 29 mmol/L
CHLORIDE [1]: 101 MEQ/L
CHOLESTEROL [1]: 78.67 mg/dL
CREATINE PHOSPHOKINASE [1]: 314.67 u/L
CREATININE [1]: 0.18 mg/dL
GLUCOSE [1]: 149 mg/dL
LIPASE [1]: 10 u/L
PHOSPHORUS [1]: 13.43 mg/dL
POTASSIUM [1]: 6.7 MEQ/L
SODIUM [1]: 144.77 MEQ/L
TOTAL BILIRUBIN [1]: 0.2 mg/dL
TOTAL PROTEIN [1]: 5.6 G/DL
URIC ACID [1]: 1.33 mg/dL
ABSOLUTE BASOPHIL [2]: 0 CELLS/uL
ABSOLUTE EOSINOPHIL [2]: 0 CELLS/uL
ABSOLUTE LYMPHOCYTE [2]: 11391.33 CELLS/uL
ABSOLUTE MONOCYTE [2]: 180.33 CELLS/uL
ABSOLUTE SEGMENTED NEUTROPHIL [2]: 2228.33 CELLS/uL
BASOPHIL [2]: 0%
EOSINOPHIL [2]: 0%
ERYTHROCYTE COUNT [2]: 5.65 x10E6/uL
HEMATOCRIT [2]: 35.6%
HEMOGLOBIN [2]: 13.2 G/DL
LEUKOCYTE COUNT [2]: 13.8 x10E3/uL
LYMPHOCYTE [2]: 82.33%
MEAN CORPUSCULAR HEMOGLOBIN [2]: 23.37 pg
MEAN CORPUSCULAR HEMOGLOBIN CONCENTRATION [2]: 37.07 G/DL
MEAN CORPUSCULAR VOLUME [2]: 62.97 fL
MONOCYTE [2]: 1.33%
NEUTROPHIL [2]: 16.33%
NUCLEATED RED BLOOD CELLS [2]: 0.33 /100WBC
PLATELET COUNT [2]: 1291 x10E3/uL
ALANINE AMINOTRANSFERASE [2]: 52.67 u/L
ALBUMIN [2]: 4.07 G/DL
ALKALINE PHOSPHATASE [2]: 368.67 u/L
ASPARTATE AMINOTRANSFERASE [2]: 80 u/L
BLOOD UREA NITROGEN [2]: 14 mg/dL
CARBON DIOXIDE [2]: 27.67 mmol/L
CHLORIDE [2]: 102.67 MEQ/L
CHOLESTEROL [2]: 83 mg/dL
CREATINE PHOSPHOKINASE [2]: 155.33 u/L
CREATININE [2]: 0.26 mg/dL
GLUCOSE [2]: 153.33 mg/dL
LIPASE [2]: 11.33 u/L
PHOSPHORUS [2]: 13.73 mg/dL
POTASSIUM [2]: 6.83 MEQ/L
SODIUM [2]: 146 MEQ/L
TOTAL BILIRUBIN [2]: 0.2 mg/dL
TOTAL PROTEIN [2]: 5.83 G/DL
URIC ACID [2]: 1.7 mg/dL
ABSOLUTE BASOPHIL [3]: 0 CELLS/uL
ABSOLUTE EOSINOPHIL [3]: 0 CELLS/uL
ABSOLUTE LYMPHOCYTE [3]: 12645 CELLS/uL
ABSOLUTE MONOCYTE [3]: 541.67 CELLS/uL
ABSOLUTE SEGMENTED NEUTROPHIL [3]: 1413.33 CELLS/uL
BASOPHIL [3]: 0%
EOSINOPHIL [3]: 0%
ERYTHROCYTE COUNT [3]: 5.27 x10E6/uL
HEMATOCRIT [3]: 34.07%
HEMOGLOBIN [3]: 12.83 G/DL
LEUKOCYTE COUNT [3]: 14.6 x10E3/uL
LYMPHOCYTE [3]: 87%
MEAN CORPUSCULAR HEMOGLOBIN [3]: 24.37 pg
MEAN CORPUSCULAR HEMOGLOBIN CONCENTRATION [3]: 37.77 G/DL
MEAN CORPUSCULAR VOLUME [3]: 64.5 fL
MONOCYTE [3]: 3.67%
NEUTROPHIL [3]: 9.33%
NUCLEATED RED BLOOD CELLS [3]: 0.33 /100WBC
PLATELET COUNT [3]: 1063 x10E3/uL
ALANINE AMINOTRANSFERASE [3]: 45.33 u/L
ALBUMIN [3]: 4.27 G/DL
ALKALINE PHOSPHATASE [3]: 387.67 u/L
ASPARTATE AMINOTRANSFERASE [3]: 114 u/L
BLOOD UREA NITROGEN [3]: 22.33 mg/dL
CARBON DIOXIDE [3]: 21.67 mmol/L
CHLORIDE [3]: 99.67 MEQ/L
CHOLESTEROL [3]: 67.33 mg/dL
CREATINE PHOSPHOKINASE [3]: 1341.67 u/L
CREATININE [3]: 0.51 mg/dL
GLUCOSE [3]: 217 mg/dL
LIPASE [3]: 11.67 u/L
PHOSPHORUS [3]: 14.5 mg/dL
POTASSIUM [3]: 7.21 MEQ/L
SODIUM [3]: 143.73 MEQ/L
TOTAL BILIRUBIN [3]: 0.17 mg/dL
TOTAL PROTEIN [3]: 6.07 G/DL
URIC ACID [3]: 2.67 mg/dL
